Several values for one entry are separate records, joined by “and”; a condition that tells them apart may be missing. Equal entries are not always repeated.
What was measured:
leiomyosarcoma tumor [1] = assay: Clinical evaluation: leiomyosarcoma patients, cycle 1, CT scan and DCE-US (Table 2); assay type: in vivo, human
From the text: A study of 4,4,4-Trifluoro-N-[(1S)-2-[[(7S)-5-(2-hydroxyethyl)-6-oxo-7H-pyrido[2,3-d][3]benzazepin-7-yl]amino]-1-methyl-2-oxo-ethyl]butanamide hydrate in patients with advanced or metastatic cancer.
(§1) This study is a multicenter, nonrandomized, open-label, dose-escalation study followed by cohort expansion of oral dosed 4,4,4-trifluoro-N-[(1S)-2-[[(7S)-5-(2-hydroxyethyl)-6-oxo-7H-pyrido[2,3-d][3]benzazepin-7-yl]amino]-1-methyl-2-oxo-ethyl]butanamide hydrate in outpatients with advanced or metastatic cancer.
(§2) 4,4,4-Trifluoro-N-[(1S)-2-[[(7S)-5-(2-hydroxyethyl)-6-oxo-7H-pyrido[2,3-d][3]benzazepin-7-yl]amino]-1-methyl-2-oxo-ethyl]butanamide hydrate, dose range 2.5 to 100 mg, given orally as capsules 3 times per week during a 28-day cycle.
(§3) 4,4,4-Trifluoro-N-[(1S)-2-[[(7S)-5-(2-hydroxyethyl)-6-oxo-7H-pyrido[2,3-d][3]benzazepin-7-yl]amino]-1-methyl-2-oxo-ethyl]butanamide hydrate will be administered orally TIW during both the dose-escalation phase (Part A) and the dose-confirmation phase (Part B).
(§4) Efficacy: Depending on the histology, efficacy will be assessed using Response Evaluation Criteria in Solid Tumors (RECIST) v1.1 for solid tumors, the Revised Criteria for Malignant Lymphoma, the Guidelines from the National Cancer Institute Working Group for CLL, or the Response Assessment in Neuro-Oncology (RANO) criteria for glioblastoma. Each patient will be assessed by 1 or more of the following radiologic tests for tumor measurement: X-ray computerized tomography (CT) scan; magnetic resonance imaging (MRI); chest X-ray; PET scan; PET/CT imaging Standardized Uptake Values (SUVMAX).
Data on 3 patients having leiomyosarcoma administered 4,4,4-trifluoro-N-[(1S)-2-[[(7S)-5-(2-hydroxyethyl)-6-oxo-7H-pyrido[2,3-d][3]benzazepin-7-yl]amino]-1-methyl-2-oxo-ethyl]butanamide hydrate in cycle 1 of an ongoing clinical trial are presented in Table 2. Patient 1 was previously treated for leiomyosarcoma with surgery, radiation therapy and 5 prior regimens of systemic therapeutic or targeted therapies. Patient 2 was previously treated for leiomyosarcoma with surgery, radiation therapy, brachytherapy and 3 prior regimens of systemic therapeutic or targeted therapies. Patient 3 was previously treated for leiomyosarcoma with surgery and 3 prior regimens of systemic therapeutic or targeted therapies.

leiomyosarcoma tumor [2] = assay: Clinical evaluation Part B: leiomyosarcoma patients, RECIST, tumor size, PET/CT SUVmax (Table 3); assay type: in vivo, human
From the text: PET/CT imaging of cancer with combined positron emission tomography (PET) and X-ray computerized tomography (CT) scanners has become a standard component of diagnosis and staging in oncology. The use of the radiolabeled tracer 2-deoxy-2-[^18F]fluoro-D-glucose (FDG) is used for the majority of all PET/CT imaging procedures. One of the advantages of PET/CT imaging is its ability to detect, very early during treatment, significant changes in glucose metabolism or even complete shutoff of the neoplastic cell metabolism as a surrogate of tumor chemosensitivity assessment. In addition to cancer detection and staging, PET/CT imaging is becoming increasingly important as a quantitative monitor of individual response to therapy and an evaluation tool for new drug therapies. […] RECIST criteria, where response of tumors to therapy has traditionally assessed by measurement of changes in size/dimension of the tumors in CT images may not evidence early response to the therapy. Changes in size of tumors as a result of therapy may take a long period of time to develop. The most widely used parameter is the standardized uptake value (SUV) is defined as the maximal SUV value (SUVMAX) in the region of interest and reduction in SUVMAX is generally considered the most reliable indicator of the metabolic activity shutdown.
as §1, §2, §3, §4
Data on 19 additional patients having leiomyosarcoma administered 4,4,4-trifluoro-N-[(1S)-2-[[(7S)-5-(2-hydroxyethyl)-6-oxo-7H-pyrido[2,3-d][3]benzazepin-7-yl]amino]-1-methyl-2-oxo-ethyl]butanamide hydrate in Part B of an ongoing clinical trial are presented in Table 3. Choi Response Criteria, were recorded for a limited number of patients and are not reported in Table 3, Choi et al, J Clin Oncol. 2007; 25:1753-1759.

[3] = Atropisomer equilibrium in solution by 1H NMR and LC-MS; assay type: physicochemical; settings: ambient temperature, after 24 hours
Protocol: In aqueous solutions, 8-9% of atropisomer 2 (minor atropisomer) is detected by ^1H NMR and LC-MS in equilibrium with atropisomer 1 (major atropisomer) at ambient temperature after 24 hours. In organic solvents, at ambient temperature after 24 hours, approximately 1-2% of atropisomer 2 is detected by ^1H NMR and LC-MS in equilibrium with atropisomer 1. Although detectable by ^1H NMR and LC-MS analysis, atropisomer 2 is not isolable.

[4] = Patient 1, initial oral dose 100 mg T.I.W., cycle 1
[5] = first assigned dose 50 mg, individual LMS patients 8-22, Hydrate
[6] = first assigned dose 75 mg, individual LMS patients 4-7, Hydrate

Row | atropisomer 2 (minor atropisomer) detected in equilibrium with atropisomer 1 ([3]; aqueous solutions) | atropisomer 2 detected in equilibrium with atropisomer 1 ([3]; organic solvents) | SMILES | Overall Response DCE-US (leiomyosarcoma tumor [1]; [4]) | Target Response (leiomyosarcoma tumor [1]; [4]) | Additional CT scan imaging after 1 cycle (leiomyosarcoma tumor [1]; after 1 cycle (28 days), patients 1-3) | Necrosis of leiomyosarcoma tumor (CT scan of the liver, confirmed by DCE-US) (leiomyosarcoma tumor [1]; patients 1 and 2, first week of treatment) | Best Change in Tumor Size (%) (leiomyosarcoma tumor [2]; [5]) | PET/CT Scan (change in SUVmax %) (leiomyosarcoma tumor [2]; [5]) | Best Change in Tumor Size (%) (leiomyosarcoma tumor [2]; [6]) | Best RECIST Response (leiomyosarcoma tumor [2]; [6]) | PET/CT Scan (change in SUVmax %) (leiomyosarcoma tumor [2]; [6]) | Clinical effect in leiomyosarcoma tumor patients (PET/CT SUVMAX data) (leiomyosarcoma tumor [2]; summary of Table 3 data)
1 |  |  | C[C@H](NC(=O)CCC(F)(F)F)C(=O)N[C@@H]1C(=O)N(CCO)c2ncccc2-c2ccccc21 [4,4,4-Trifluoro-N-[(1S)-2-[[(7S)-5-(2-hydroxyethyl)-6-oxo-7H-pyrido[2,3-d][3]benzazepin-7-yl]amino]-1-methyl-2-oxo-ethyl]butanamide Hydrate] | Confirmed | 90% necrosis | confirmed necrosis in all three patients | significant necrosis | 13% and 60% and 37% and 19% and 20% and −13% and 33% and 24% and 23% and 50% | −7% and 37% and −5% and −30% and 0% and −11% and 16% | 13% and 23% and 2% | Unconfirmed PR | −4% and 58% and 10% and 32% | beneficial clinical effect
2 | 8-9% | 1-2% | C[C@H](NC(=O)CCC(F)(F)F)C(=O)N[C@@H]1C(=O)N(CCO)c2ncccc2-c2ccccc21 [Compound 1, 4,4,4-trifluoro-N-[(1S)-2-[[(7S)-5-(2-hydroxyethyl)-6-oxo-7H-pyrido[2,3-d][3]benzazepin-7-yl]amino]-1-methyl-2-oxo-ethyl]butanamide] |  |  |  |  |  |  |  |  |  | 

Reference: US10555951B2, “Targeted treatment of leiomyosarcoma” (Eli Lilly and Company, priority 2015, dated 2020)
